Measured values taken from patent US20080112955A1, “METHOD AND COMPOSITION FOR PREVENTING PAIN IN SICKLE CELL PATIENTS” (TRF PHARMA, INC., priority 2002, published 2008).

B1: trypsin: protease used at 0.02% to pretreat erythrocytes (protein, UniProt P00760 24-246, looked up)
Serine protease 1: IVGGYTCGANTVPYQVSLNSGYHFCGGSLINSQWVVSAAHCYKSGIQVRLGEDNINVVEGNEQFISASKSIVHPSYNSNTLNNDIMLIKLKSAASLNSRVASISLPTSCASAGTQCLISGWGNTKSSGTSYPDVLKCLKAPILSDSSCKSAYPGQITSNMFCAGYLEGGKDSCQGDSGGPVVCSGKLQGIVSWGSGCAQKNKPGVYTKVCNYVSWIKQTIASN

Experiments:
[1] = tested on: human umbilical vein endothelial cells (HUVECs); experiment: static gravity adherence assay with dip rinse: erythrocyte adherence to endothelial monolayers; type: cell-based; conditions: for percent adherence of nonsickle RBCs to thrombin-treated endothelium with agent / percent adherence of nonsickle RBCs to untreated endothelium with agent / percent adherence of sickle cells to thrombin-treated endothelium with agent / percent adherence of sickle cells to untreated endothelium with agent: mean±SEM, 100% = nonsickle RBCs on untreated HUVECs, mAbs 1:200, sLeX 100 μM, sialidase 0.1 U/mL; for percent adherence of nonsickle RBCs to thrombin-treated endothelium with agent / percent adherence of nonsickle RBCs to untreated endothelium with agent / percent adherence of sickle cells to thrombin-treated endothelium with agent / percent adherence of sickle cells to untreated endothelium with agent / reduction of adherence of nonsickle RBCs to untreated endothelium: sLac 500 μM; for reduction of adherence of nonsickle RBCs to thrombin-treated endothelium / reduction of adherence of nonsickle RBCs to untreated endothelium / reduction of adherence of sickle cells to thrombin-treated endothelium / reduction of adherence of sickle cells to untreated endothelium: static, vs no agent, sialidase 0.1 U/mL on RBCs; for reduction of adherence of nonsickle RBCs to thrombin-treated endothelium / reduction of adherence of sickle cells to thrombin-treated endothelium: HUVECs 0.1 U/mL thrombin 5 min; for reduction of adherence of nonsickle RBCs to thrombin-treated endothelium / reduction of adherence of sickle cells to thrombin-treated endothelium / reduction of adherence of sickle cells to untreated endothelium: mAbs 1:200, sLac 500 μM; for reduction of adherence of nonsickle RBCs to untreated endothelium / reduction of adherence of sickle cells to untreated endothelium: untreated HUVECs; for reduction of adherence of nonsickle RBCs to untreated endothelium: mAbs 1:200 on HUVECs; for reduction of adherence of sickle cells to thrombin-treated endothelium / reduction of adherence of sickle cells to untreated endothelium: sickle RBCs; for reduction of adherence compared with sLac present: 100 μM sLeX
Procedure: Thrombin treatment of human umbilical vein endothelial cells (HUVECs) and the static gravity adherence assay with dip rinse were performed as previously described. When 90% confluent, HUVECs (Clonetics, San Diego, Calif.) were treated with 0.1 U/mL thrombin (Sigma Chemicals, St Louis, Mo.) or medium alone for 5 minutes before assaying erythrocyte adherence. Adherent RBCs were counted microscopically in 8 randomly selected 0.15-mm2 fields for each study condition. The adherence data may be presented as percent adherence where 100% is the mean adherence of nonsickle RBCs to untreated HUVECs.
Because of potential modulatory effects of heparin on adherence, the static adherence assay was used to compare the adhesivity of sickle cells and autologous plasma according to whether they were prepared with citrate anticoagulant or with heparin. […] The contribution of P-selectin to thrombin-enhanced adherence was determined by comparing the effects on adherence of exposing HUVECs to no antibody, a 1:200 dilution of nonblocking P-selectin monoclonal antibodies (mAbs) AC1.2 (BD Pharmingen, San Diego, Calif.), or a 1:200 dilution of blocking P-selectin mAb 9E1 (R & D Systems, Minneapolis, Minn.).
(§1) To determine whether sialic acid on erythrocytes is a recognition determinant for P-selectin, prior to testing RBC adherence the erythrocytes were treated with sialidase using a published method. Packed RBCs were mixed with an equal volume of buffer or 0.1 U/mL Vibrio cholerae sialidase (Calbiochem, San Diego).
(§2) For each experiment mean adherence was set arbitrarily at 100% for the control data. The mean adherence of data derived from perturbations of control conditions were calculated as a percentage relative to the control. The average of the means from replicate experiments was then calculated. The uncertainty of the estimate of the means from the data distributed in each set is described as SEM. An SEM of 0% resulted when control data sets were normalized to 100%. We used the paired one-tailed Student test to compare changes in adhesion resulting from different perturbations of the system.

[2] = tested on: thrombin-treated HUVECs (endothelial cell P-selectin); experiment: parallel plate flow adhesion of sickle erythrocytes to HUVECs; type: cell-based, human; conditions: n=10
Source text: Blood samples obtained from subjects with sickle cell disease and from healthy control subjects, as approved by the Committee on Human Research at the University of California-San Francisco (UCSF), were drawn into citrate. The buffy coat was removed after the initial centrifugation and after each of 3 subsequent washes of the remaining erythrocytes in phosphate buffered saline (PBS) and one wash in HAH buffer (Hanks balanced salt solution [HBSS; UCSF Cell Culture Facility, San Francisco, Calif.], 1% bovine serum albumin [BSA, Fraction V; Sigma, St Louis, Mo.], 50 mM HEPES [N-2-hydroxyethylpiperazine-N′-2- ethanesulfonic acid; Sigma], pH 7.40). Erythrocytes to be used in flow adhesion studies were suspended to a 0.5% hematocrit. To assess for leukocyte contamination, the erythrocyte preparation was exposed to 10 μg/mL rhodamine 6G, which stains leukocytes but not erythrocytes, and washed 3 times in HAH. No leukocytes were detected in the erythrocyte suspensions prepared using the above protocol. […]
Rolling cells were defined as those sickle cells that were in the same microscopic focal plane as the immobile surface or endothelial monolayer and moving at a distinctly slower velocity than the bulk flow. Those cells determined to be rolling were in contact with the substrata throughout their entire transit through the field of observation, which excludes those cells in brief transient contact with the substrate. Data on rolling adherence are expressed as the mean numbers of rolling red blood cells (cells/mm^2) and the mean rolling velocity of these cells (mm/s) from multiple experiments; error is expressed as SEM. The microscopic field in which adherent cells were measured has an area of 0.15 mm^2 and a volume of 0.038 mm^3. […] The velocity of rolling cells was determined by the time required for a cell to roll across the 0.5-mm field (0.5 mm/s). […] Data on firm adhesion are expressed as the mean numbers of firmly adherent red blood cells in the area described above. Statistical significance was determined using the Student t test. […]

[3] = tested on: P-selectin-Ig chimera; experiment: nonstatic rotatory adherence assay: erythrocytes on immobilized P-selectin-Ig chimera; type: cell-based, human; conditions: for percent adherence of nonsickle cells to P-selectin with agent / percent adherence of sickle cells to P-selectin with agent: mean±SEM, 100% = untreated nonsickle erythrocytes on BSA or Siglec, 5 mM EDTA or sialidase; for reduction of adherence of nonsickle cells to P-selectin / reduction of adherence of sickle cells to P-selectin: 5 mM EDTA present or RBCs pretreated with 0.1 U/mL sialidase
Procedure: (§3) 400 ng bovine serum albumin (BSA; Sigma), a sialic acid-binding lectin (Siglec)-6-Ig chimera, mutated Siglec-7-Ig chimera, or P-selectin-Ig chimera was immobilized on microtiter wells. […] These chimeras were applied to the wells in 10 mM carbonate buffer overnight and then blocked with 0.5% BSA in Hanks buffered salt solution (University of California, San Francisco, Cell Culture Facility) before incubation with RBCs using a published rotatory adhesion assay. Erythrocyte adherence to BSA, Siglec-6, mutant Siglec-7, or P-selectin was measured as the number of RBCs observed in 8 random 0.04-mm2 fields for each condition. The adherence data are presented as percent adherence where 100% is the mean number of untreated nonsickle erythrocytes/field in a well in which BSA or Siglec was immobilized.
as §1, with “Diego). […] Efficacy of sialidase on RBCs was confirmed by agglutination with peanut extract lectin (Arachis hypogea lectin, Sigma).” for “Diego).”
as §2

[4] = tested on: Siglec-6-Ig chimera; experiment: nonstatic rotatory adherence assay: erythrocytes on immobilized control Siglec-6-Ig chimera; type: cell-based, human; conditions: mean±SEM, RBCs pretreated with sialidase
Procedure: as §3
as §1, with “Diego). […]” for “Diego).”
For each experiment mean adherence was set arbitrarily at 100% for the control data. The mean adherence of data derived from perturbations of control conditions were calculated as a percentage relative to the control. The average of the means from replicate experiments was then calculated. […]

[5] = tested on: RBCs; experiment: hemolysis of sialidase-treated RBCs by colorimetric spectrophotometry; type: cell-based, human; conditions: 0.1 U/mL sialidase
Procedure: as §1, with “Diego). […] Efficacy of sialidase on RBCs was confirmed by agglutination with peanut extract lectin (Arachis hypogea lectin, Sigma).” for “Diego).”

[6] = HUVECs treated with 0.1 U/mL thrombin for 5 minutes vs untreated
[7] = erythrocytes pretreated with 0.02% trypsin, data not shown

Molecule	percent adherence of nonsickle RBCs to thrombin-treated endothelium with agent [1]	percent adherence of nonsickle RBCs to untreated endothelium with agent [1]	percent adherence of sickle cells to thrombin-treated endothelium with agent [1]	percent adherence of sickle cells to untreated endothelium with agent [1]	reduction of adherence of nonsickle RBCs to thrombin-treated endothelium [1]	reduction of adherence of nonsickle RBCs to untreated endothelium [1]	reduction of adherence of sickle cells to thrombin-treated endothelium [1]	reduction of adherence of sickle cells to untreated endothelium [1]	percent adherence of nonsickle cells to P-selectin with agent [3]	percent adherence of sickle cells to P-selectin with agent [3]	reduction of adherence of nonsickle cells to P-selectin [3]	reduction of adherence of sickle cells to P-selectin [3] [%]	also measured
CC(=O)N[C@H]1[C@H]([C@H](O)[C@H](O)CO)O[C@@](O[C@H]2[C@@H](O)[C@@H](CO)O[C@@H](O[C@H]3[C@H](O)[C@@H](O)C(O)O[C@@H]3CO)[C@@H]2O)(C(=O)O)C[C@@H]1O (stereo partly shown) [sLac, 3′-sialyl-lactose]	162%±28%	105%±15%	304%±74%	144%±44%	Neither did sLac reduce significantly	not reduced significantly	Neither did sLac reduce significantly	not reduced significantly					
thrombin													decrease in rolling velocities of sickle cells [2, 6]: 26%; increase in number of rolling sickle cells [2, 6]: 54%; increase in number of firmly adhered sickle cells ([2]; thrombin treatment of HUVECs vs untreated): 130%
O=C(O)CN(CCN(CC(=O)O)CC(=O)O)CC(=O)O [EDTA]									95%±11%	177%±18%	35%	32	
CC(=O)NC1C(O)CC(OC2C(O)C(CO)OC(OC3C(CO)OC(O)C(NC(C)=O)C3OC3OC(C)C(O)C(O)C3O)C2O)(C(=O)O)OC1C(O)C(O)CO (stereo not shown) [sLeX, sialyl Lewis X (sLeX) tetrasaccharide]	82%±41%	55%±12%	196%±38%	91±8%									reduction of adherence compared with sLac present ([1]; nonsickle cells, thrombin-treated endothelial cells): 49%; reduction of adherence compared with sLac present ([1]; nonsickle cells, untreated endothelial cells, not significant): ~48%; reduction of adherence compared with sLac present ([1]; sickle cells, thrombin-treated endothelial cells): 36%; reduction of adherence compared with sLac present ([1]; sickle cells, untreated endothelial cells, not significant): ~37%
sialidase: Vibrio cholerae sialidase (Calbiochem) used to treat RBCs	68%±15%	53%±13%	282%±133%	191%±67%	81%	47%	63%	36%	88%±11%	182%+17%	no significant effect	33	percent adherence of nonsickle cells to Siglec-6 after sialidase ([4]; nonsickle cells): 79%±13%; percent adherence of sickle cells to Siglec-6 after sialidase ([4]; sickle cells): 157%±18%; hemolysis [5]: No hemolysis was detected
B1													adherence of sickle and nonsickle cells to untreated and thrombin-treated endothelial cells [1, 7]: reduced substantially; adhesion of sickle and nonsickle cells to immobilized P-selectin [3, 7]: did not reduce significantly
